Drawing on ChEMBL document CHEMBL6078659, “Comprehensive Insights into the Development of Antitoxoplasmosis Drugs: Current Advances, Obstacles, and Future Perspectives” (J Med Chem, 2024), this text covers IC50 for 15 molecules.

A short description of series [1]: Cytotoxicity against African green monkey Vero cells by MTT assay. The class given is toxicity, cell-based. Particulars: African green monkey (Chlorocebus sabaeus). For orientation: Tetrazolium dyes change colour on reduction, which living cells bring about.
Series [2] has as its target T1, Bifunctional dihydrofolate reductase-thymidylate synthase (Toxoplasma gondii, UniProt Q07422).
T1 sequence (Q07422 whole entry): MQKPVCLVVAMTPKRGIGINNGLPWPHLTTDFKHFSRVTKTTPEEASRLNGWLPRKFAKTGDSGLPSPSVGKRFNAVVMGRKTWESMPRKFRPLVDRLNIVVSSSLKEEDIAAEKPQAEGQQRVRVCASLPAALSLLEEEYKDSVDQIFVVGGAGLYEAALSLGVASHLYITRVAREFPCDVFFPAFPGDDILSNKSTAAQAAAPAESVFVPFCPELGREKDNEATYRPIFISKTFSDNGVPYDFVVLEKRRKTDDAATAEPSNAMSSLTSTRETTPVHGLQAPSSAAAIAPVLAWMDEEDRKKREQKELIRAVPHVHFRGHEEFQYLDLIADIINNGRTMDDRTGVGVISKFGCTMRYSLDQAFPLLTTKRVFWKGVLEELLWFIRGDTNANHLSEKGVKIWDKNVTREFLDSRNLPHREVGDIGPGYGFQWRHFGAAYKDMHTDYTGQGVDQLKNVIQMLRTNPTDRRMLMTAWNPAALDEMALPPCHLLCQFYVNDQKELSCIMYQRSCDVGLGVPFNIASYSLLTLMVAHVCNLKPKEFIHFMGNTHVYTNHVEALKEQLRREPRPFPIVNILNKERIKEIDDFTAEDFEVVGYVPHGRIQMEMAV
In words: Inhibition of Toxoplasma gondii thymidylate synthase.

For series [3], the system named is Toxoplasma gondii. The series can be described thus: Antiparasitic activity against Toxoplasma gondii RH infected in human HFF cells assessed as reduction in parasitic growth. The format is functional, organism-based.
Series [4] can be described thus: Cytotoxicity against African green monkey Vero cells assessed as reduction in cell viability by MTT assay. The class given is toxicity, cell-based. The note with it: African green monkey (Chlorocebus sabaeus).
The subject of series [5] is Toxoplasma gondii. The series can be described thus: Antiparasitic activity against Toxoplasma gondii RH infected in human HFF cells. The format is functional, organism-based.
Series [6] concerns Toxoplasma gondii. The series can be described thus: Antiparasitic activity against Toxoplasma gondii. The format is functional, organism-based.

Structures are written as SMILES. ≈ marks a conversion by molar mass, not a printed value. Where only a bound is given, the exact number is not on record here.

Usually IC50 stands for the concentration that gives 50% inhibition. In series [1], `C/C(=N\Nc1nc(-c2ccc(Cl)c(Cl)c2)cs1)c1ccc(Nc2nc(N)nc(N)n2)cc1` had a half-maximal inhibitory concentration (IC50) of 14.9 mg/L.
For `C[C@H](NC(=O)OC(C)(C)C)C(=O)OC1O[C@@H]2O[C@@]3(C)CC[C@H]4[C@H](C)CC[C@@H]([C@H]1C)[C@@]24OO3` (stereo partly drawn), inhibition in series [2] was half-maximal at 41 µM (IC50).
As to `N=C(N)N/N=C/c1c(Cl)cccc1Cl` [GUANABENZ], in the series with Toxoplasma gondii [3], the half-maximal inhibitory concentration (IC50) stood at 6 µM.
Consider `CC(C)=CCC/C(C)=C/C=O` [CITRAL], for which, in series [4], the 50% inhibitory concentration (IC50) amounted to 9 mg/L (≈ 59.1 µM).
Regarding `Fc1ccc(-c2csc(N/N=C/C3CC3)n2)cc1`, the figures for the half-maximal inhibitory concentration (IC50) (in the series with Toxoplasma gondii [5]; in series [1]) were 18.1 mg/L (≈ 69.2 µM) and 18 mg/L, respectively.
On to `CC1=CC[C@H]2[C@H]3[C@@H]1[C@]2(C)CC[C@H]3C(C)C`, for which the half-maximal inhibitory concentration (IC50) in series [4] was 9.94 mg/L (≈ 48.6 µM).
Take `C[C@H]1[C@H](N2CCSCC2)O[C@@H]2O[C@@]3(C)CC[C@H]4[C@H](C)CC[C@@H]1[C@@]24OO3` [ARTEMISIDE]: the IC50 in series [2] amounted to 0.1 µM.
`NC(=S)N/N=C(/COc1ccc(F)cc1)c1ccc(Cl)cc1`: the IC50 (in the series on Toxoplasma gondii [6]; in series [1]) was 1.19 µM each time.
In turn, `C[C@H]1[C@H](N2CCS(=O)(=O)CC2)O[C@@H]2O[C@@]3(C)CC[C@H]4[C@H](C)CC[C@@H]1[C@@]24OO3` [ARTEMIFONE] showed an IC50 in series [2] of 0.12 µM.
As to `C=CCSSCC=C` [DIALLYLDISULFIDE], the IC50 in series [4] was 66.9 mg/L (≈ 457 µM).
`Cn1cc(-c2ccc3c(c2)CCN3C(=O)Cc2cccc(C(F)(F)F)c2)c2c(N)ncnc21`: the 50% inhibitory concentration (IC50) in the series on Toxoplasma gondii [3] was < 1 µM.
For `C=CCSSSC`, in series [4], the IC50 worked out at 66 mg/L (≈ 433 µM).
On to `COC(=O)/C=C(\C)CCC=C(C)C`, for which the IC50 in series [4] is 9 mg/L (≈ 49.4 µM).
As to `COc1ccc(/C(COc2ccc(F)cc2)=N\NC(N)=S)cc1`, the IC50 (in the series with Toxoplasma gondii [6]; in series [1]) was 1.09 µM in each case.
Regarding `C=CCSSSCC=C` [ALLITRIDIN], the IC50 in series [4] is 28 mg/L (≈ 157 µM).
